These results are taken from patent publication US8119681B2, “2-[1-phenyl-5-hydroxy or methoxy-4alpha-methyl-hexahydrocyclopenta [ƒ]indazole-5-YL]ethyl phenyl derivatives as glucocorticoid receptor ligands” (Merck Sharp & Dohme Corp., priority 2006, dated 2012).

Assay [1] has as its target T1, human GR (Homo sapiens, UniProt P04150).
T1 sequence (P04150 1-777): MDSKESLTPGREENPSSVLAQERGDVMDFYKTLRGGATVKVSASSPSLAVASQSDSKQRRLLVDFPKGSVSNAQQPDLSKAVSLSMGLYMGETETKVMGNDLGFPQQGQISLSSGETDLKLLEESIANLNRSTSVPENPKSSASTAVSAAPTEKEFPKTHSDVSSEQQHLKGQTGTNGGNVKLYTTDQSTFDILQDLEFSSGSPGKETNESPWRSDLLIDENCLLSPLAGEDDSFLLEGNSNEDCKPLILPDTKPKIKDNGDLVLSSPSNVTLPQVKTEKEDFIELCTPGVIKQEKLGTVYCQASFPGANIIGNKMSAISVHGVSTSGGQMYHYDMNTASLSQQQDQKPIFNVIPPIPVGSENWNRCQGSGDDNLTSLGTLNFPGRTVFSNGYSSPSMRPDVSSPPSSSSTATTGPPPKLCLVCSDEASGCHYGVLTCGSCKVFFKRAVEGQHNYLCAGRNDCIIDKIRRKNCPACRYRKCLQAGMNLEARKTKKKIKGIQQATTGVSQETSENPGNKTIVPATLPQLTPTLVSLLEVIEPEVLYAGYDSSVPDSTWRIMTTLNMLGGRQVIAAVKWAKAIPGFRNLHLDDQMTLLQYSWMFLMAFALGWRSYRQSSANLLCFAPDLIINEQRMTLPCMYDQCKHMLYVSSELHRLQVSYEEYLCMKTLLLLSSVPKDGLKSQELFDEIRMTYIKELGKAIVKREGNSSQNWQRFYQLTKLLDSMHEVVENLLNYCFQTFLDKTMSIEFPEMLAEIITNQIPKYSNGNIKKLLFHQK
Description: Trans-Activation Modulation of Glucocorticoid Receptor (GRAMMER), MMTV-LUC reporter gene. In kind it is cell-based. Details: endogenous in cells. To be noted: for Emax: A549, read-out: Transactivation A549 Cells GRAMMER Emax (%); for EC50: Table 1, A549 cells, IP = inflection point, read-out: Transactivation A549 Cells GRAMMER IP. An excerpt: Trans-Activation Modulation of Glucocorticoid Receptor (GRAMMER)
This assay assesses the ability of test compounds to control transcription from the MMTV-LUC reporter gene in lung adenocarcinoma A549 cells or HeLa cells, a human […] cell line that naturally expresses the human GR. The assay measures induction of a modified MMTV LTR/promoter linked to the LUC reporter gene.
The routine transient assay consists of plating 7,000-25,000 cells/well of a white, clear-bottom 96-well plate. Alternatively, 384-well plates can be used at a cell concentration of 10,000/well. The media that the cells are plated in is “exponential growth medium” which consists of phenol red-free RPMI1640 containing 10% FBS, 4 mM L-glutamine, 20 mM HEPES, 10 ug/mL human insulin, and 20 ug/mL gentamicin. Incubator conditions are 37° C. and 5% CO2. The transfection is done in batch mode. The cells are trypsinized and counted to the right cell number in the proper amount of fresh media. It is then gently mixed with the FuGene6/DNA mix and plated onto the 96 or 384-well plate, all the wells receive 100 uL or 40 uL, respectively, of medium+lipid/DNA complex then incubated 37° C. overnight. The transfection cocktail consists of serum-free OptiMEM, FuGene6 reagent and DNA. The manufacturer's (Roche Biochemical) protocol for cocktail setup is as follows: The lipid to DNA ratio is approximately 2.5:1 and the incubation time is 20 min at room temperature. Sixteen to 24 hours after transfection, the cells are treated with dexamethasone to a final concentration of 10 nM as well as the compound of interest, such that final DMSO (vehicle) concentration is equal to or less than 1%. Each plate also contains samples that are treated with 10 nM dexamethasone alone, which is used as the 100% activity control. The cells are exposed to the compounds for 24 hours. After 24 hours, the cells are lysed by a Promega cell culture lysis buffer for approximately 30 min and then the luciferase activity in the extracts is assayed in the 96-well format luminometer. In 384-well format, Steady-Glo (Promega) or Steady-Lite (PerkinElmer) can be used by adding an equal volume of reagent to the media present in each well. Activity induced by 10 nM dexamethasone alone is set at 100% activity. Antagonist activity is calculated by determining the decrease in dexamethasone-induced activity in response to compound treatment relative to samples that were treated with dexamethasone alone. […] This transactivation assay can be performed in an agonist and antagonist mode to identify these different activities. […]

For assay [2], the target named is T1, human GR. Description: Transrepression Assay (GITAR), TNFα-β-lactamase reporter gene in U937 cells. It counts as cell-based. Set-up: U937 cells contain an endogenous glucocorticoid receptor (GR); endogenous in cells; host or cells: U937 cells stably transfected with the TNF-α promoter/β-lactamase reporter only. The conditions noted are these: for EC50: IP = inflection point, read-out: Transrepression U937 Cells GITAR IP; for GITAR > GRAMM % SEP: separation of GITAR Emax over GRAMMER Emax; for Emax: U-937. In a few lines: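 Reporter readout used CCF2-AM loading for 70–90 min at room temperature after overnight (~18 h, 37 °C) PMA (5 ng/ml final) and LPS (100 ng/ml final) stimulation of compound-treated (30–45 min) TNFα-β-lactamase U937 cells expressing native GR. Activity was normalised to 100 nM dexamethasone repression.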
(In a reporter assay the amount or activity of a reporter protein is the signal.)

[3] abbreviates: 100 nM dexamethasone = 100% activity, read-out: maximal activity in the transrepression assay.
Where [4] appears, read: Table 1, U937 cells, activity repressed by 100 nM dexamethasone = 100%, read-out: Transrepression U937 Cells GITAR Emax (%).

Turning to `COC(=O)C1(NC(=O)c2ccccc2CC[C@]2(O)CCC3=Cc4c(cnn4-c4ccc(F)cc4)C[C@@]32C)CC1` [Example 26, methyl 1-[(2-{2-[(4αS,5R)-1-(4-fluorophenyl)-5-hydroxy-4α-methyl-1,4,4α,5,6,7-hexahydrocyclopenta[f]indazol-5-yl]ethyl}benzoyl)amino]cyclopropanecarboxylate], the Emax at human GR [1] is 24%; at human GR [2] (setting [3]), 5 to 100%; on human GR [2] (setting [4]), 39%. Moreover, the EC50 amounted to 39 nM at human GR [1] and 123 nM on human GR [2] (Table 1, U937 cells). Further, on human GR [2] (Table 1), the “GITAR > GRAMM % SEP” value was 15%.
In the case of `CC1(NC(=O)c2ccccc2CC[C@]2(O)CCC3=Cc4c(cnn4-c4ccc(F)cc4)C[C@@]32C)CC1` [Example 28, 2-{2-[(4αS,5R)-1-(4-fluorophenyl)-5-hydroxy-4α-methyl-1,4,4α,5,6,7-hexahydrocyclopenta[f]indazol-5-yl]ethyl}-N-(1-methylcyclopropyl)benzamide], the values for the Emax on human GR [1], on human GR [2] (setting [3]) and at human GR [2] (setting [4]) were 28%, 5 to 100% and 72%, respectively. Moreover, the EC50 at human GR [1] stood at 48 nM; on human GR [2] (Table 1, U937 cells) it was 65 nM. Also, the “GITAR > GRAMM % SEP” value at human GR [2] (Table 1) came to 43%.
Turning to `CC(C)CNC(=O)c1ccccc1CC[C@]1(O)CCC2=Cc3c(cnn3-c3ccc(F)cc3)C[C@@]21C` [Example 29, 2-{2-[(4αS,5R)-1-(4-fluorophenyl)-5-hydroxy-4α-methyl-1,4,4α,5,6,7-hexahydrocyclopenta[f]indazol-5-yl]ethyl}-N-isobutylbenzamide], the Emax is 24% on human GR [1], 5 to 100% on human GR [2] (setting [3]) and 61% on human GR [2] (setting [4]). Moreover, the EC50 at human GR [1] was 95 nM; at human GR [2] (Table 1, U937 cells), 190 nM. For the same compound, on human GR [2] (Table 1), the “GITAR > GRAMM % SEP” value amounted to 37%.
In the case of `CCCNC(=O)c1ccccc1CC[C@]1(O)CCC2=Cc3c(cnn3-c3ccc(F)cc3)C[C@@]21C` [Example 30, 2-{2-[(4αS,5R)-1-(4-fluorophenyl)-5-hydroxy-4α-methyl-1,4,4α,5,6,7-hexahydrocyclopenta[f]indazol-5-yl]ethyl}-N-propylbenzamide], the Emax at human GR [1] is 29%; at human GR [2] (setting [3]), 5 to 100%; at human GR [2] (setting [4]), 50%. The EC50 was determined as 81 nM on human GR [1] and 127 nM on human GR [2] (Table 1, U937 cells). The “GITAR > GRAMM % SEP” value at human GR [2] (Table 1) is 21%.
As for `CC(CNC(=O)c1ccccc1CC[C@]1(O)CCC2=Cc3c(cnn3-c3ccc(F)cc3)C[C@@]21C)C(F)(F)F` (stereo partly drawn) [Example 31, 2-{2-[(4αS,5R)-1-(4-fluorophenyl)-5-hydroxy-4α-methyl-1,4,4α,5,6,7-hexahydrocyclopenta[f]indazol-5-yl]ethyl}-N-(3,3,3-trifluoro-2-methylpropyl)benzamide], the Emax on human GR [1] is 9%; on human GR [2] (setting [3]) it was 5 to 100%; on human GR [2] (setting [4]), 48%. Also, the EC50 on human GR [1] turned out to be 93 nM; on human GR [2] (Table 1, U937 cells), 183 nM. Also, at human GR [2] (Table 1), the “GITAR > GRAMM % SEP” value was determined as 39%.
For `C=C(C)CNC(=O)c1ccccc1CC[C@]1(O)CCC2=Cc3c(cnn3-c3ccc(F)cc3)C[C@@]21C` [Example 32, 2-{2-[(4αS,5R)-1-(4-fluorophenyl)-5-hydroxy-4α-methyl-1,4,4α,5,6,7-hexahydrocyclopenta[f]indazol-5-yl]ethyl}-N-(2-methylprop-2-en-1-yl)benzamide], the Emax on human GR [1] is 13%; on human GR [2] (setting [3]) it was 5 to 100%; on human GR [2] (setting [4]), 49%. Further, the EC50 at human GR [1] was found to be 134 nM; on human GR [2] (Table 1, U937 cells) it was 277 nM. Also, at human GR [2] (Table 1), the “GITAR > GRAMM % SEP” value came out at 36%.
As to `C=CCNC(=O)c1ccccc1CC[C@]1(O)CCC2=Cc3c(cnn3-c3ccc(F)cc3)C[C@@]21C` [Example 33, N-allyl-2-{2-[(4αS,5R)-1-(4-fluorophenyl)-5-hydroxy-4α-methyl-1,4,4α,5,6,7-hexahydrocyclopenta[f]indazol-5-yl]ethyl}benzamide], the Emax on human GR [1] was 37%; on human GR [2] (setting [3]), 5 to 100%; on human GR [2] (setting [4]), 62%. In addition, the EC50 at human GR [1] came to 62 nM; at human GR [2] (Table 1, U937 cells), 123 nM. Also, at human GR [2] (Table 1), the “GITAR > GRAMM % SEP” value was determined as 25%.
With `CC1(NC(=O)c2ccccc2CC[C@]2(O)CCC3=Cc4c(cnn4-c4ccccc4)C[C@@]32C)CC1` [Example 34, 2-{2-[(4αS,5R)-5-hydroxy-4α-methyl-1-phenyl-1,4,4α,5,6,7-hexahydrocyclopenta[f]indazol-5-yl]ethyl}-N-(1-methylcyclopropyl)benzamide], the Emax on human GR [1] is 13%; at human GR [2] (setting [3]), 5 to 100%; at human GR [2] (setting [4]), 54%. The EC50 at human GR [1] turned out to be 128 nM; at human GR [2] (Table 1, U937 cells) it was 208 nM. Moreover, at human GR [2] (Table 1), the “GITAR > GRAMM % SEP” value is on record as 41%.
On to `CC(C)NC(=O)c1ccccc1CC[C@]1(O)CCC2=Cc3c(cnn3-c3ccc(F)cc3)C[C@@]21C` [Example 35, 2-{2-[(4αS,5R)-1-(4-fluorophenyl)-5-hydroxy-4α-methyl-1,4,4α,5,6,7-hexahydrocyclopenta[f]indazol-5-yl]ethyl}-N-isopropylbenzamide], for which the figures for the Emax on human GR [1], on human GR [2] (setting [3]) and on human GR [2] (setting [4]) were 48%, 5 to 100% and 62%, respectively. The EC50 stood at 60 nM at human GR [1] and 170 nM on human GR [2] (Table 1, U937 cells). The “GITAR > GRAMM % SEP” value on human GR [2] (Table 1) is reported as 14%.
Regarding `C[C@]12Cc3cnn(-c4ccc(F)cc4)c3C=C1CC[C@@]2(O)CCc1ccccc1C(=O)NCC1CC1` [Example 37, N-(cyclopropylmethyl)-2-{2-[(4αS,5R)-1-(4-fluorophenyl)-5-hydroxy-4α-methyl-1,4,4α,5,6,7-hexahydrocyclopenta[r]indazol-5-yl]ethyl}benzamide], the Emax was 57% on human GR [1], 5 to 100% at human GR [2] (setting [3]) and 58% at human GR [2] (setting [4]). The EC50 on human GR [1] was determined as 65 nM; at human GR [2] (Table 1, U937 cells) it was 81 nM. The “GITAR > GRAMM % SEP” value on human GR [2] (Table 1) is recorded as 1%.
In the case of `CC(CNC(=O)c1c(F)cccc1CC[C@]1(O)CCC2=Cc3c(cnn3-c3ccc(F)cc3)C[C@@]21C)C(F)(F)F` (stereo partly drawn) [Example 38, 2-fluoro-6-{2-[(4αS,5R)-1-(4-fluorophenyl)-5-hydroxy-4α-methyl-1,4,4α,5,6,7-hexahydrocyclopenta[f]indazol-5-yl]ethyl}-N-(3,3,3-trifluoro-2-methylpropyl)benzamide], the Emax at human GR [1] is 15%; at human GR [2] (setting [3]) it was 5 to 100%; at human GR [2] (setting [4]) it was 58%. Besides, the EC50 at human GR [1] was 91 nM; on human GR [2] (Table 1, U937 cells), 152 nM. The “GITAR > GRAMM % SEP” value at human GR [2] (Table 1) was found to be 44%.
